Measured values published in PubChem BioAssay (NCI).
Where “and” joins values, the source holds several entries; their conditions need not be identical. Identical values can stand only once.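 Where inhibition never reached the appropriate level, the endpoint shown equals the highest concentration tested. Otherwise, values were interpolated linearly from a five-concentration, 48-hour dose response in 96-well plates. GI50: concentration for 50% inhibition of growth. At the TGI there is no net growth.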

What was measured:
Test in all cases: growth of human tumour cells (NCI), 48 h
NCI-H460 lung = system: NCI-H460 lung
LOX IMVI melanoma = system: LOX IMVI melanoma
M14 melanoma = system: M14 melanoma
T-47D breast = system: T-47D breast
OVCAR-8 ovarian = system: OVCAR-8 ovarian
PC-3 prostate = system: PC-3 prostate
NCI-H522 lung = system: NCI-H522 lung
OVCAR-4 ovarian = system: OVCAR-4 ovarian
UO-31 renal = system: UO-31 renal
SK-OV-3 ovarian = system: SK-OV-3 ovarian
CCRF-CEM leukemia = system: CCRF-CEM leukemia
HL-60(TB) leukemia = system: HL-60(TB) leukemia
MALME-3M melanoma = system: MALME-3M melanoma
NCI/ADR-RES ovarian = system: NCI/ADR-RES ovarian
SF-539 CNS = system: SF-539 CNS
SK-MEL-5 melanoma = system: SK-MEL-5 melanoma
SW-620 colon = system: SW-620 colon
SR leukemia = system: SR leukemia
MOLT-4 leukemia = system: MOLT-4 leukemia

SMILES | TGI (NCI-H460 lung) | TGI (LOX IMVI melanoma) | TGI (M14 melanoma) [µM] | TGI (T-47D breast) [nM] | TGI (OVCAR-8 ovarian) | TGI (PC-3 prostate) [µM] | TGI (NCI-H522 lung) | TGI (OVCAR-4 ovarian) | TGI (UO-31 renal) | TGI (SK-OV-3 ovarian) | TGI (CCRF-CEM leukemia) | TGI (HL-60(TB) leukemia) | TGI (MALME-3M melanoma) | TGI (NCI/ADR-RES ovarian) [µM] | TGI (SF-539 CNS) | TGI (SK-MEL-5 melanoma) | TGI (SW-620 colon) | TGI (SR leukemia) [µM] | TGI (MOLT-4 leukemia) | GI50 (NCI/ADR-RES ovarian)
CCCCCCCCCC[C@@H](O)[C@@H]1CC[C@@H]([C@@H]2CC[C@@H]([C@@H](O)CCCCCCCCCCC(O)CC3=CC(C)OC3=O)O2)O1 (some centres undefined) | > 10 µM | > 10 µM | > 10 | > 10000 | > 10 µM | > 10 | > 10 µM | > 10 µM | > 10 µM | > 10 µM | > 10 µM | 1.85 µM | > 10 µM | > 10 | > 10000 nM | 2.92 µM | > 10 µM | 6.45 | > 10 µM | 
Cc1c2cc[n+](C)cc2c(C)c2c1[nH]c1ccccc12 | 12.3 µM and 11.8 µM | 48.3 µM and 27.4 µM | > 100 | 832 | 27.4 µM and 18.1 µM | > 100 | 3.6 µM and 3.45 µM | 15 µM and 10.9 µM | > 93.4 µM and 68.7 µM | 64.7 µM and 64.2 µM | 41.9 µM and 35.3 µM | 66.9 µM and 63.5 µM | 3.24 µM and 4.03 µM | > 100 | 2850 nM and 2930 nM | 5.92 µM and 4.85 µM | 54.6 µM and 47.5 µM | > 100 | 56.6 µM and 30.2 µM | 48 µM and 15 µM
